Experimental data published in patent US8507504B2, “Process for producing bicycloaniline derivatives” (Merck Sharp & Dohme Corp., priority 2008, dated 2013).

Tested on: Human colon cancer cells WiDr
Assay: Tumor growth inhibitory effect, WiDr xenograft in nude rats, combined with gemcitabine
Assay type: in vivo, F344/N Jcl-rnu nude rats
Settings: summary of Table 1
Description: Pharmacological Test 2 (Tumor Growth Inhibitory Effect)
Human colon cancer cells WiDr (obtained from ATCC) were implanted into the subcutaneous area of the back of F344/N Jcl-rnu nude rats. 12 days after the implantation, 5 mg/kg of gemcitabine (Gemzar, from Eli Lily) was intravenously administered to them; and after 24 hours, a test compound suspended in a solvent (0.5% methyl cellulose) was orally administered thereto. This was repeated once a week for 3 weeks. The tumor volume (0.5×major diameter×(minor diameter)^2) was measured on days 0, 3, 6, 10, 13, 17, 20, 24 and 27 (the first gemcitabine administration is on day 0). The relative tumor volume was calculated, based on the tumor volume on day 0, as 1. The tumor growth rate (% T/C) was obtained according to the formulae mentioned below.
In case where the tumor volume change from day 0 in the test compound administration group is more than 0 (>0): % T/C=(tumor volume change in the test compound group on days 3, 6, 10, 13, 17, 20, 24 and 27/tumor volume change in the control group on days 3, 6, 10, 13, 17, 20, 24 and 27)×100.
In case where the tumor volume change from day 0 in the test compound administration group is less than 0 (<0): % T/C=(tumor volume change in the test compound group on days 3, 6, 10, 13, 17, 20, 24 and 27/tumor volume […] in the test compound group on day 0)×100. […]

Nc1ccn([C@@H]2O[C@H](CO)[C@@H](O)C2(F)F)c(=O)n1 [Gemcitabine, gemcitabine]
tumor growth rate (result in words): reduced the tumor growth rate
